Consider two substances from paper PMC9499506, “TNF-α and IL-1β Modulate Blood-Brain Barrier Permeability and Decrease Amyloid-β Peptide Efflux in a Human Blood-Brain Barrier Model” (International Journal of Molecular Sciences, 2022).

Common to all, as to format: cell-based, human
In assay [1] the test system is BLECs. Briefly: Western immunoblotting of proinflammatory markers (ICAM-1, VCAM-1, NLRP3) in BLECs. The following applies: for protein levels of ICAM-1, VCAM-1 and NLRP3 versus untreated BLECs: 10 ng·mL^−1, 24 h. On the procedure: Next, as the inflammatory response of endothelial cells is largely dependent on appropriate upregulation of adhesion molecules, such as intercellular adhesion molecule-1 (ICAM-1) and vascular cell adhesion molecule-1 (VCAM-1), and the inflammasome molecule NOD-like receptor family, pyrin domain containing 3 (NLRP3), we evaluated, by Western immunoblotting, the ability of BLECs to respond to these pro-inflammatory stimuli.
(§1) Each condition was studied in triplicate.
(§2) After 24 h of treatments with or without proinflammatory cytokines, BLECs were washed twice with cold RH buffer and scraped with 70 μL of RIPA 1X lysis buffer (10 mM Tris-Cl (pH 8.0), 1 mM EDTA, 0.5 mM EGTA, 1% Triton X-100, 0.1% sodium deoxycholate, 0.1% SDS, 140 mM NaCl) (Merck Millipore, Burlington, MA, USA) or UT4 lysis buffer (7M Urea, 2M Thiourea, 4% CHAPS), both supplemented with a cocktail of phosphatase and protease inhibitors (1% protease inhibitors cocktail #P8340; 1% phosphatase inhibitors cocktail 1 P2850; 1% phosphatase inhibitors cocktail 2 #P5726; 1% protease inhibitors cocktail #P8340) purchased from Sigma-Aldrich (Lyon, France). Then, a centrifugation at 10,000 rpm for 10 min at 4 °C was achieved to save the supernatant of the lysate. This was later sonicated two times for 5 s on ice. The concentration of the protein lysate was quantified using the Bradford method (#5000006; rad, Munich, Germany). The protein samples were then stored at −20 °C.
(§3) 20 μg of total protein was mixed with Laemmli 4X (#1610747; Biorad, Munich, Germany) supplemented with β-mercaptoethanol (Sigma-Aldrich, Germany). Depending on the protein target, details of the denaturation and reduction steps of the protein extract are described in Table 3. Then, the protein mixes were electrophoresed using Criterion™ TGX™ (Tris-Glycine eXtended) precast gels (Biorad, Munich, Germany) and subsequently electrotransferred to nitro-cellulose membranes (GE Healthcare, Munich, Germany). Once the previous step was completed, Tris-buffered saline 0.1% Tween 20 (TBST; 20 mM Tris-HCl, pH 8.0, 500 mM NaCl, 0.1% Tween 20) supplemented with 5% skimmed milk was added on membrane to block nonspecific binding sites for 1 h under agitation at RT. Membranes were incubated in the appropriate primary antibodies (as described in Table 3) and incubated at 4 °C overnight, except β-actin (20 min at RT).
(§4) The following morning, the membranes were rinsed with TBST three times for 5 min each under agitation, and then incubated with the horseradish peroxidase-conjugated secondary antibody anti-rabbit (1:8000, Dako/Agilent Technologies, Inc., Santa Clara, CA, USA) or secondary antibody anti-mouse (1:5000, Dako/Agilent Technologies, Inc., Santa Clara, CA, USA) for 1 h at RT. […] Quantification of the relative densities of bands was performed with TotalLab TL 100 1D Gel Analysis software (Nonlinear Dynamics, Newcastle, UK). The protein expression normalization was conducted with anti-β-actin. Studies were performed with at least three independent experiments, with at least two Western immunoblottings per experiment.

For assay [2], the system named is BLECs. Briefly: RT-qPCR of junctional protein mRNA in BLECs. The note with it: normalized to cyclophilin A, 10 ng·mL^−1, 24 h; for VE-cadherin mRNA level versus control: ΔΔCt. Here is the method: as §1
BLECs were washed twice with cold RH buffer, then lysed using RLT lysis buffer (Qiagen, Les Ulis, France). The cell lysates were extracted according to the manufacturer’s instructions “Qiagen RNeasy Mini kit”. Briefly, a volume of cell lysates was mixed with a volume of 70% (v/v) ethanol and placed in a column (Rneasy Mini kit, Qiagen, Les Ulis, France). A first centrifugation was performed to adsorb the RNAs to the column. A series of two rinses with buffer RW1 and a centrifugation (10.000 rpm, 30 s) were performed. Samples were treated with DNase in its RDD buffer for 20 min. Then, another succession of rinses (one with buffer RW1 and two with buffer RPE) and centrifugation (10.000 rpm, 30 s) were performed. Finally, water (RNAse Free) was added to the column to elute the RNAs by centrifugation (13.000 rpm, 2 min at 20 °C). The amount of extracted mRNAs was assayed by spectrophotometry (Synergy H1, Biotek, Colmar, France). Absorbances at 280 nm (proteins) and 260 nm (nucleic acids) were performed. The mRNA concentration was determined from the Beer-Lambert law and the mRNA purity of the sample was assessed with the Absorbance 260 nm/Absorbance 280 nm ratio. This ratio must be close to 2.1 to consider the sample to be with high purity. The mRNA samples were then stored at −80 °C.
Reverse transcription (RT) was performed on the samples containing the extracted mRNAs to obtain cDNAs. A total of 250 ng of mRNA was reverse-transcribed using iScriptTM reverse Transcription Supermix 5X (Biorad, Munich, Germany), containing reverse transcriptase, RNAse inhibitors, RNAse H, dNTPs (nucleoside triphosphates), oligonucleotides (dTs) (deoxy-thymine repeats) and random primers (hexamers of dNTPs randomly binding to mRNAs) and MgCl2). To each microtube, a volume of water (RNAse free) was added to obtain a final volume of 20 µL, then a reverse transcription cycle was performed in the thermal cycler (MJ Research): 5 min at 25 °C (hybridization), 30 min at 42 °C (reverse transcription) and 5 min at 85 °C (reverse transcription inactivation). The cDNA samples were then stored at −20 °C. For each reverse transcription and for each condition, an internal control was performed by adding iScriptTM No-RT control Supermix 5X (Biorad, Munich, Germany), a solution without the reverse transcriptase enzyme (NRT), instead of iScriptTM reverse Transcription Supermix 5X.
The qPCR was performed on a 96-well plate where each sample was deposited in triplicate. To perform qPCR, human-specific primer pairs were drawn for each gene of interest (Table 2).
An efficiency test and a melting curve were performed for each pair of primers used using the CFX Manager software (Biorad, Munich, Germany) allowing for the specificity and efficiency of the primers to be checked. A qPCR of the cDNAs obtained by RT-PCR was performed using the specific primers and a SsoFast^TM Evagreen SuperMix (Biorad, Munich, Germany) containing DNA polymerase, its cofactors, dNTPs and Evagreen® (a fluorochrome that binds to DNA during elongation). The amplification was carried out for 40 cycles with a hybridization temperature of 60 °C. The reaction was performed in a CFX96 Real-Time System thermal cycler (Biorad, Munich, Germany). Gene expression levels were assessed using the ΔΔCt method and normalized to a reference gene, cyclophilin A. The data were then plotted as a percentage against the control condition. Two controls were performed per primer pair: an NRT and a primer hybridization control (NTC), where the sample containing the cDNAs is replaced with water.

Assay [3] deals with BLECs. Briefly: Western immunoblotting of receptors/transporters involved in Aβ peptide transport in BLECs. The following applies: 10 ng·mL^−1, 24 h; for downregulation of BCRP protein level compared to control / downregulation of LRP1 protein level compared to control: normalized to β-actin. On the procedure:
as §1, §2, §3, §4

Setting [4] is: both cytokines 10 ng·mL^−1, 24 h, normalized to β-actin.

Turning to interleukin-1β [IL-1β], the “protein levels of ICAM-1, VCAM-1 and NLRP3 versus untreated BLECs” value in the assay on BLECs [1] is recorded as “significantly higher”. In the assay with BLECs [2], the “decrease of ZO-1 mRNA level compared to control” value turned out to be 48.1%, the “decrease of claudin-3 mRNA level compared to control” value is recorded as 81.3%, the “decrease of occludin mRNA level compared to control” value amounted to 64.0% and the “decrease of tricellulin mRNA level compared to control” value came to 62.8%. Also, in the assay with BLECs [2], the “increase of claudin-5 mRNA expression compared to control” value was 48.1% and the “VE-cadherin mRNA level versus control” value is given as “lower”. For the same substance, in the assay on BLECs [3], the “P-gp protein expression compared to control” value is on record as “no significant change”, the “PICALM protein expression compared to control” value was “induced an increase of PICALM protein expression”, the “RAGE protein expression compared to control” value is recorded as “no significant change” and the “downregulation of BCRP protein level compared to control” value is listed as 49.0%. Besides, in the assay on BLECs [3], the “downregulation of LRP1 protein level compared to control” value stood at 45.2%.

As to tumor necrosis factor-α [TNF-α], the “protein levels of ICAM-1, VCAM-1 and NLRP3 versus untreated BLECs” value with BLECs [1] is given as “significantly higher”. Also, in the assay with BLECs [1] (setting [4]), the “ICAM-1 protein level higher after TNF-α compared to IL-1β” value came to 22.2%, the “NLRP3 protein level higher after TNF-α compared to IL-1β” value is 478.4% and the “VCAM-1 protein level higher after TNF-α compared to IL-1β” value was determined as 230.6%. Also, in the assay with BLECs [2], the “decrease of claudin-3 mRNA level compared to control” value is on record as 61.8%, the “decrease of occludin mRNA level compared to control” value is 66.3%, the “decrease of tricellulin mRNA level compared to control” value turned out to be 68.1% and the “increase of claudin-5 mRNA expression compared to control” value was 139.4%. Also, the “VE-cadherin mRNA level versus control” value in the assay on BLECs [2] is given as “not significantly different”. Moreover, in the assay on BLECs [3], the “P-gp protein expression compared to control” value is given as “no significant change”, the “PICALM protein expression compared to control” value is on record as “did not affect PICALM protein expression”, the “RAGE protein expression compared to control” value is on record as “no significant change” and the “downregulation of BCRP protein level compared to control” value is 73.4%. Besides, the “downregulation of LRP1 protein level compared to control” value in the assay on BLECs [3] is listed as 41.9%.
